According to patent US20250101338A1, “BIOMASS DERIVED SURFACE-ACTIVE COMPOSITIONS AND PRODUCTS” (Cambridge Glycoscience Ltd, priority 2021, published 2025):

Tests used:
[1] = Aqueous hydrolytic stability by UPLC-MS (Example 73); type: physicochemical; settings: 0.5 mg/mL
Procedure: Determination of aqueous stability of the test compounds was performed using UPLC-MS. A test compound 10 mg/mL stock solution was prepared by dissolving Example 11 composition (N-decyl-N-acetylxylosylamine) (inventive surface-active composition) in DMSO. Buffer solutions, comprised of simple, commercially-available acidic or basic substances in deionized water were prepared at pH 1, pH 3, pH 4, pH 5, pH 6, pH 7, pH 9, pH 11 and pH 13.

[2] = Relative viscosity, gravity flow time (Example 74); type: physicochemical; settings: 10 mL of 10 wt % sodium dodecyl sulfate + 0.3 g NaCl + 0.655 mL of 30 wt % test solution, 27° C., triplicate
Procedure: The time taken for precisely 3 mL of testing mixture to pass out of the […] by gravity was recorded. The test was repeated in triplicate. Averaged results are depicted in FIG. 20 and table 9. It was unexpected that example 11 composition recorded such high viscosity over example 14 composition, which differs by a slightly smaller alkyl chain (octyl instead of decyl).

Stability During 1-week (daily monitoring) (% of original concentration lost to degradation) ([1]; Buffer pH 1, 25° C.): (<50%)
Stability During 12-hour Assay (% of original concentration lost to degradation) ([1]; Buffer pH 1, 25° C.): (<1%) degradation
Stability During 1-week (daily monitoring) (% of original concentration lost to degradation) ([1]; Buffer pH 3, 25° C.): (<0.1%) degradation
Stability During 12-hour Assay (% of original concentration lost to degradation) ([1]; Buffer pH 3, 25° C.): (<0.1%) degradation
Stability During 1-week (daily monitoring) ([1]; Buffer pH 4, 25° C.): Full stability
Stability During 12-hour Assay ([1]; Buffer pH 4, 25° C.): Full stability
Stability During 1-week (daily monitoring) ([1]; Buffer pH 5, 25° C.): Full stability
Stability During 12-hour Assay ([1]; Buffer pH 5, 25° C.): Full stability
Stability During 1-week (daily monitoring) ([1]; Buffer pH 6, 25° C.): Full stability
Stability During 12-hour Assay ([1]; Buffer pH 6, 25° C.): Full stability
Stability During 1-week (daily monitoring) ([1]; Buffer pH 7, 25° C.): Full stability
Stability During 12-hour Assay ([1]; Buffer pH 7, 25° C.): Full stability
Stability During 1-week (daily monitoring) ([1]; Buffer pH 9, 25° C.): Full stability
Stability During 12-hour Assay ([1]; Buffer pH 9, 25° C.): Full stability
Stability During 1-week (daily monitoring) (% of original concentration lost to degradation) ([1]; Buffer pH 11, 25° C.): (<0.1%) degradation
Stability During 12-hour Assay (% of original concentration lost to degradation) ([1]; Buffer pH 11, 25° C.): (<0.1%) degradation
Stability During 1-week (daily monitoring) (% of original concentration lost to degradation) ([1]; Buffer pH 13, 25° C.): (<10%)
Stability During 12-hour Assay (% of original concentration lost to degradation) ([1]; Buffer pH 13, 25° C.): (<0.1%) degradation
Average time (for 3 mL to pass out of the stripette by gravity) [2]: 270.3 s
SMILES: CCCCCCCCCCN(C(C)=O)C1OC[C@@H](O)[C@H](O)[C@H]1O (stereo partly shown) [Example 11 composition, N-decyl N-acetyl xylosylamine]
